Results: paper PMC6133293 (SLAS discovery : advancing life sciences R & D, 2018)

Molecular target: G551D-CFTR (Homo sapiens, UniProt P13569, G551D)
Experiment: short-circuit current in FRT cells, positive control potentiator
Assay type: cell-based

G551D-CFTR, sequence (P13569 whole entry G551D): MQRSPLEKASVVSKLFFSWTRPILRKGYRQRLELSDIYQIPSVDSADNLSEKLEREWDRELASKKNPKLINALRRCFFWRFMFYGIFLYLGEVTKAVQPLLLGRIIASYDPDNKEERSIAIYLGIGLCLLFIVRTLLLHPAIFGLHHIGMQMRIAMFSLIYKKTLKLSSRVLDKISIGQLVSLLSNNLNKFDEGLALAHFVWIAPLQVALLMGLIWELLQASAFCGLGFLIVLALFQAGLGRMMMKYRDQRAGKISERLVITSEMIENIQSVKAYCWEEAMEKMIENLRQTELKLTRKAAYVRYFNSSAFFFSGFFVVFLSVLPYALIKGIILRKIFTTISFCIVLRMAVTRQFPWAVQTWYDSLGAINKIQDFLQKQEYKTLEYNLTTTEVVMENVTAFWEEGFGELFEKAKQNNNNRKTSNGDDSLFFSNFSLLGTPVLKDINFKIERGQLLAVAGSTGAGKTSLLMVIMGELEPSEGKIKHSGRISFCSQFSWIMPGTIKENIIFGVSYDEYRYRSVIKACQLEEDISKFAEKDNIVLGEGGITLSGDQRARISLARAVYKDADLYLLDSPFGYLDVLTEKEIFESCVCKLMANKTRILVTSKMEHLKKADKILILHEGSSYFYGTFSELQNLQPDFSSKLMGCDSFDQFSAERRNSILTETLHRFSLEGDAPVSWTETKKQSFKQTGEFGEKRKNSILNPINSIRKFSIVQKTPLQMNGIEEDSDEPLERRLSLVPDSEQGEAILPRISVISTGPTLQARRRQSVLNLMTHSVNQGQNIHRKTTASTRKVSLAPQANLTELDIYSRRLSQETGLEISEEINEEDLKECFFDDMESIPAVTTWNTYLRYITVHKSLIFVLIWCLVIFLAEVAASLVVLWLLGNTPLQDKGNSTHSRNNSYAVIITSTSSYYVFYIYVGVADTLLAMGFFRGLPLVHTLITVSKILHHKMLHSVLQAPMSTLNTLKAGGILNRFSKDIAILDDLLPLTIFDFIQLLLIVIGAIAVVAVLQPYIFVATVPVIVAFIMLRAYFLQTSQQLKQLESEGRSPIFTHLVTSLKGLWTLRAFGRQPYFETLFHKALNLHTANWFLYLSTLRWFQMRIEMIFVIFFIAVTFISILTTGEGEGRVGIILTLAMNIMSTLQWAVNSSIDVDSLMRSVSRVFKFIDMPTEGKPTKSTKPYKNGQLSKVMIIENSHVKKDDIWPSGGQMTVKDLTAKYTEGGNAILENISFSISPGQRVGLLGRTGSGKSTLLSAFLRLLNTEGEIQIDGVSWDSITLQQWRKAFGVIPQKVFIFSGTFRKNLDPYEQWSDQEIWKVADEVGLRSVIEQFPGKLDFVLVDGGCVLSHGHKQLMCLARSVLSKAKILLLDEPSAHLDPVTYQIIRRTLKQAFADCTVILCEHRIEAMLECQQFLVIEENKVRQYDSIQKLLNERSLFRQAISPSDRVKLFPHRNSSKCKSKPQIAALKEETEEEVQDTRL

CC(C)(C)c1cc(C(C)(C)C)c(NC(=O)c2c[nH]c3ccccc3c2=O)cc1O [VX-770]
short-circuit current in FRT cells, positive control potentiator: A-01 did not activate G551D-CFTR at high concentration, with VX-770 shown as the positive control
